Consider five compounds from patent EP1852441B1, “Agents that modulate EPH receptor activity” (The Burnham Institute, priority 2002, dated 2004).

Assay [1] has as its system neural crest cells. Briefly: neural crest cell migration assay in trunk explants. It counts as cell-based, Chick. As to conditions: 24 hours, 13 µM KYL peptide, 10 µg/ml EphA4-Fc. Here is the method:
(§1) In this example to address whether the EphA4-binding peptides can inhibit endogenous ephrin-EphA4 physiological function, a neural crest cell migration assay (McLennan, R. & Krull, C.E. 2002 Gene Expr 10:295-305) was utilized. […] The migration of neural crest cells was determined by staining for HNK-1 for neural crest cells and ephrin-B1 to label the caudal sclerotome. […] Neural crest cells migrated properly into the rostral sclerotome in explants treated with control Fc.

Assay [2] has as its target T1, endogenous EphA4 (Mus musculus, UniProt Q03137).
T1 construct: tyrosine phosphorylation of endogenous EphA4; from tissue; host or cells: mouse hippocampal slices
Briefly: ephrin-A3 Fc induced EphA4 tyrosine phosphorylation in hippocampal slices (immunoblot). As to conditions: peptide together with ephrin-A3 Fc, micromolar concentrations. Type of assay: cell-based.

Assay [3] deals with EphA2. Kind of assay: EphA2 tyrosine phosphorylation and MAP kinase signaling in HUVE cells. It counts as cell-based, human. As to conditions: in the absence of ephrin. Here is the method:
Ephin-A1 Fc was cross-linked by preincubation with 0.2 µg/ml anti-human fc antibodies for 30 minutes on ice. After stimulation, the cells were lysed in modified RIPA buffer {Ogawa, K. et al. 2000 Oncogene 19: 6043-6052). Cell lysates were immunoprecipitated with 5 µg anti-EphA2 antibody (Upstate, Lake Placid, NY), separated by SDS polyacrylamide gel electrophoresis and probed by immunobloting with peroxidase-conjugated anti-phosphotyrosine antibody (Transduction Laboratories, San Diego, CA) or anti-EphA2 antibody followed by a secondary anti-mouse IgG peroxidase-conjugated antibody (Amersham).
(§2) Cell lysates were used to immunoprecipitate EphA2 as described above or probed by immunoblotting with anti-phospho-p44/p42 MAPK antibody (Cell Signaling Technology, Beverly, MA) followed by an anti-mouse IgG peroxidase-conjugated antibody (Amersham) and re-probed with an anti-ERK2 antibody (Santa Cruz Biotechnology, Santa Cruz, CA) followed by a secondary anti-rabbit IgG peroxidase-conjugated antibody (Amersham). Erk2 (p42 MAP kinase) is the major phosphorylated form present. EphA2 was immunoprecipitated (IP) and probed by immunoblotting with anti-ghosphotyrosine (PTyr) or anti-EphA2 antibodies.

The test system of assay [4] is MAP kinase. Kind of assay: MAP kinase phosphorylation in HUVE cells (immunoblot). It counts as cell-based, human. As to conditions: non-serum starved HUVE cells.
From the text: as §2

The test system of assay [5] is neural crest cells. Kind of assay: Neural crest cell migration assay in trunk explants. It counts as cell-based. As to conditions: 13 µM peptide, 24 hours, chick trunk explants. The procedure: as §1

T1 sequence (Q03137 20-986): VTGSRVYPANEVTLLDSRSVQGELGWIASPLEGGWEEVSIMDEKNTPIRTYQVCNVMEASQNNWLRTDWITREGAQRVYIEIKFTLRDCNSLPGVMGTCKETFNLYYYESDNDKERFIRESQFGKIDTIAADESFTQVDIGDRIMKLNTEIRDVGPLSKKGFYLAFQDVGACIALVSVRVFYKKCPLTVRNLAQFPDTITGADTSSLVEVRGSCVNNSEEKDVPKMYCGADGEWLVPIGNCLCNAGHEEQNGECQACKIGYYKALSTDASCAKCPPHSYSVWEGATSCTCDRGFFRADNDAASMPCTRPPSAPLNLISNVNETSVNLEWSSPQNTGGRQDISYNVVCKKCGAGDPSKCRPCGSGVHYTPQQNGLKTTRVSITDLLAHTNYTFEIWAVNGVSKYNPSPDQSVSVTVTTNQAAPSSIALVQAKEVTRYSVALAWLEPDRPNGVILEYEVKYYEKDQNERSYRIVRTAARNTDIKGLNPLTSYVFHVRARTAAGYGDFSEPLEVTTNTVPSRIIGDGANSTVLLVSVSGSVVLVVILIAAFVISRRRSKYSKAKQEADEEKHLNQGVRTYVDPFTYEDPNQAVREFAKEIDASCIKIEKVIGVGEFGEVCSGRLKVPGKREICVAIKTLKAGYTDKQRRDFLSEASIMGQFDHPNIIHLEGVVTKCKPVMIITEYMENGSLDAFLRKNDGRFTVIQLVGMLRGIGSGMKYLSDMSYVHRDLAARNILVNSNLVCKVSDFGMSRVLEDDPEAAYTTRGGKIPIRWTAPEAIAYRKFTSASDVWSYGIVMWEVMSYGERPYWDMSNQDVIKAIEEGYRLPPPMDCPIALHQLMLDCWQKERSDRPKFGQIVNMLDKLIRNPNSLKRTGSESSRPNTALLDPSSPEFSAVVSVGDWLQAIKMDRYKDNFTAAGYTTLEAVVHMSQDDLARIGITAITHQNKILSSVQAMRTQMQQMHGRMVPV

As for KYLPYWPVLSSL, the “migration of neural crest cells” value in assay [1] is on record as “ectopic migration of neural crest cells into the caudal half-selerotome”. Besides, the “ephrin-A3-induced tyrosine phosphorylation of endogenous EphA4” value in assay [2] is “antagonize”; in assay [2] (listed as KYL peptide), “lower concentrations than the APY and VTM peptides”.

For VTMEAINLAFPG, the “ephrin-A3-induced tyrosine phosphorylation of endogenous EphA4” value in assay [2] is listed as “antagonize”.

Regarding `CSCC[C@H](NC(=O)[C@H](CCSC)NC(=O)[C@@H]1CCCN1C(=O)[C@@H](NC(=O)[C@H](CO)NC(=O)[C@H](CC(=O)O)NC(=O)[C@@H]1CCCN1C(=O)[C@H](Cc1ccc(O)cc1)NC(=O)[C@H](C)NC(=O)[C@H](CO)NC(=O)[C@@H](N)Cc1ccc(O)cc1)C(C)C)C(=O)N[C@@H](CO)C(=O)O` [YSA peptide], the “functional effect on EphA2 (tyrosine phosphorylation, suppression of MAP kinase)” value in assay [3] was “agonist for EphA2”.

With `CSCC[C@H](NC(=O)[C@H](CCSC)NC(=O)[C@@H]1CCCN1C(=O)[C@@H](NC(=O)[C@H](CO)NC(=O)[C@H](CC(=O)O)NC(=O)[C@@H]1CCCN1C(=O)[C@H](Cc1ccc(O)cc1)NC(=O)[C@H](C)NC(=O)[C@H](CO)NC(=O)[C@@H](N)Cc1ccc(O)cc1)C(C)C)C(=O)N[C@@H](CO)C(=O)NCC(=O)N[C@@H](CO)C(=O)NCC(=O)N[C@@H](CO)C(=O)N[C@@H](CCCCNC(=O)CCCC[C@@H]1SC[C@@H]2NC(=O)N[C@@H]21)C(=O)O` [YSA peptide], the MAP kinase activation entry in assay [4] is listed as “suppresses MAP kinase activation”.

For KYLPYWPVLSSL [KYL peptide], the “migration of neural crest cells” value in assay [5] was “ectopic migration of neural crest cells into the caudal half-selerotome”.
